Patent US12336989B2, “Transmucosal methods for treating psychiatric and neurological conditions” (INTRA-CELLULAR THERAPIES, INC., priority 2017, dated 2025)

Assays:
[1] = Example 2: pharmacokinetics of oral dosing in dogs; assay type: in vivo, beagle dogs; conditions: sublingual and subcutaneous dosing at 1.0 mg/kg vs oral 15 mg/kg
Experimental: For control, the dogs are administered empty capsules. For the Compound of Formula I, the dogs are administered normal-release oral capsules. Blood samples are obtained at 0.25 hours, 0.5 hours, 1 hour, 4 hours, 8 hour and 24 hours. […] Cmax, Tmax and area-under-the-curve (AUC, 0-24 hours) are calculated using Phoenix WinNonlin software.

[2] = molecular target: H1 histaminergic receptors (Homo sapiens, UniProt P35367); conditions: cited from earlier work
5-HT2C receptors = molecular target: T1, 5-HT2C receptors (Homo sapiens, UniProt P28335); conditions: cited from earlier work
T1 sequence (P28335 33-458): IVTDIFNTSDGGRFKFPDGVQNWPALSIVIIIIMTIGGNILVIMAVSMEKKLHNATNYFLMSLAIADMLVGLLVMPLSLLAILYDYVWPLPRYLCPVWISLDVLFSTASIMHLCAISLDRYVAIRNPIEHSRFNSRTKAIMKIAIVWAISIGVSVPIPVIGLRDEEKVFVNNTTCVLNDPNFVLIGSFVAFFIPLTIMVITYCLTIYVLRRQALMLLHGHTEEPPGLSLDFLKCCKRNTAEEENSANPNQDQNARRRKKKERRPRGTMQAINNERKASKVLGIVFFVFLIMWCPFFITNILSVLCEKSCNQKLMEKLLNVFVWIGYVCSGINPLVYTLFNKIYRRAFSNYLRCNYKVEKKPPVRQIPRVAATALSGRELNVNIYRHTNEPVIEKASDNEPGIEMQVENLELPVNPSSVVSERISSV

muscarinic receptors = conditions: cited from earlier work

H1 histaminergic receptors, sequence (P35367 whole entry): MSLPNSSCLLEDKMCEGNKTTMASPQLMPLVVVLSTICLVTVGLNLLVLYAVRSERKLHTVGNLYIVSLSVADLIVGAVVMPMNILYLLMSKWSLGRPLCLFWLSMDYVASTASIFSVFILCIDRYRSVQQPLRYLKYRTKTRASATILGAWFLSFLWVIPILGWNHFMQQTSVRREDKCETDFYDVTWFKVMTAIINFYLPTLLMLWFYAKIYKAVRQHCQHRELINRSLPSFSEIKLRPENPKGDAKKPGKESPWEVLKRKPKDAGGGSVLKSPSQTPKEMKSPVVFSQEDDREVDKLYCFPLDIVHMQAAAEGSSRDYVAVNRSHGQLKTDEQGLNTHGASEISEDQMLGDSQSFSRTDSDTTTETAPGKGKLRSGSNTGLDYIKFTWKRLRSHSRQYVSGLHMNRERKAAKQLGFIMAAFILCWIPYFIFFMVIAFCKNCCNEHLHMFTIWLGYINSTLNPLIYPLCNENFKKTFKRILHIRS

24-hour AUC, times higher than oral dosing at 15 mg/kg [1]: about three
Compound: CN1CCN2c3c(cccc31)[C@@H]1CN(CCCC(=O)c3ccc(F)cc3)CC[C@@H]12 [Compound of Formula I, 1-(4-fluoro-phenyl)-4-((6bR,10aS)-3-methyl-2,3,6b,9,10,10a-hexahydro-1H,7H-pyrido[3′,4′:4,5]pyrrolo[1,2,3-de]quinoxalin-8-yl)-butan-1-one]
binding to H1 histaminergic receptors [2]: negligible binding
binding to 5-HT2C receptors (5-HT2C receptors): negligible binding
binding to muscarinic receptors (muscarinic receptors): negligible binding
